From US20200253877A1, “GEMCABENE, PHARMACEUTICALLY ACCEPTABLE SALTS THEREOF, COMPOSITIONS THEREOF AND METHODS OF USE THEREFOR” (NEUROBO PHARMACEUTICALS, INC., priority 2018, published 2020)

Assays:
[1] = system: STAM™ mice, a murine model of NASH-HCC; assay: Murine STAM model of NASH-HCC: liver histology (H&E, NAFLD Activity Score, Sirius red fibrosis area); assay type: in vivo, mouse; set-up: key to NAS (mean ± SD) / NAFLD Activity Score: NAS = unweighted sum of steatosis, lobular inflammation, ballooning scores; conditions: for Lobular Inflammation score 0: number of mice: score 0 = No foci; for Hepatocyte Ballooning score 0: number of mice: score 0 = None; for Steatosis score 1: number of mice: score 1 = 5-33%; for Hepatocyte Ballooning score 1: number of mice: score 1 = Few balloon cells; for Lobular Inflammation score 2: number of mice: score 2 = 2-4 foci/200x; for Hepatocyte Ballooning score 2: number of mice: score 2 = Many cells/prominent ballooning; for NAFLD Activity Score / Sirius red-positive area: STAM mice
From the text: The present invention further provides methods for reducing a fibrosis score or a nonalcoholic fatty liver disease activity score in a subject, comprising administering to a subject in need thereof an effective amount of a tablet of the invention, gemcabene calcium salt hydrate Crystal Form 4, gemcabene calcium salt hydrate Crystal Form 5 or gemcabene calcium salt hydrate Crystal Form 6. The nonalcoholic fatty liver disease activity score (NAS or NAFLD score) is a composite score that measures changes in NAFLD during therapeutic trials. NAS is a composite score comprised of three components that includes scores for steatosis, lobular inflammation and hepatocyte ballooning (Table 36). NAS is the unweighted sum of the scores for steatosis, lobular inflammation and hepatocyte ballooning. Steatosis grade is quantified as the percentage of hepatocytes that contain fat droplets. The fibrosis stage of the liver is evaluated separately from NAS by histological evaluation of the intensity of Sirius red staining of collagen in the pericentral region of liver lobules.
A study was performed to evaluate the efficacy of gemcabene calcium salt hydrate Crystal Form 1 having a PSD90 of 52 μm as measured by laser light diffraction, in treating non-alcoholic steatosis hepatitis (NASH) in the murine STAM™ model of NASH-HCC.
Briefly, two-day old neonatal C57BL/6 male mice were administered low-dose streptozotocin (STZ), and were subsequently fed a HFC diet from 4 weeks of age. In this model, the mice typically develop liver steatosis and diabetes, reaching steatohepatitis within 3 weeks, followed by cirrhosis within 8 weeks, and carcinoma within 16 weeks. In the current study, mice were administered daily oral gemcabene calcium salt hydrate Crystal Form 1 starting at week 6 of age and were sacrificed at week 9. […] These STAM™ groups were orally administered from week 6 one of the following: water-vehicle, gemcabene calcium salt hydrate Crystal Form 1 at 30, 100 and 300 mg/kg daily, or telmisartan ([…]®) 10 mg/kg daily. […] All groups were sacrificed at week 9. Vehicle, gemcabene calcium salt hydrate Crystal Form 1, or telmisartan were administered by oral gavage once daily.
For Hematoxylin and Eosin (H&E) staining, sections were cut from paraffin blocks of liver tissue prefixed in Bouin's solution and stained with Lillie-Mayer's Hematoxylin (Muto Pure Chemicals Co., Ltd., Japan) and eosin solution (Wako Pure Chemical Industries). NAFLD Activity score (NAS) was calculated according to the criteria of Kleiner, D E. Et al., Hepatology, 2005; 41:1313-1321. To visualize collagen deposition, Bouin's fixed liver sections were stained using picro-Sirius red solution (Waldeck, Germany). For Masson Trichrome staining, the sections were stained with Masson's Trichrome staining Kit (Sigma, USA) according to the manufacturer's instructions.
For quantitative analysis of fibrosis area, bright field images of Sirius red-stained sections were captured around the central vein using a digital camera (DFC295; Leica, Germany) at 200-fold magnification, and the positive areas in 5 fields/section were measured using ImageJ software (National Institute of Health, USA). Samples were analyzed in a blinded fashion.

[2] = system: STAM™ mice, a murine model of NASH-HCC; assay: Murine STAM model of NASH-HCC: whole blood, plasma and liver biochemistry; conditions: mean ± SD, n = 8; for Fasting blood glucose / Plasma insulin: Day 18 after 8 hours of fasting; for Liver free fatty acid / Liver hydroxyproline / Liver triglyceride / Non-fasting blood glucose / Plasma ApoC-III / Plasma CRP / Plasma adiponectin / Plasma alanine aminotransferase / Plasma alkaline phosphatase / Plasma aspartate aminotransferase / Plasma blood urea nitrogen / Plasma creatinine / Plasma gamma-glutamyl transferase / Plasma ketone body / Plasma leptin / Plasma total bilirubin / Plasma total cholesterol / Plasma triglyceride: at termination (Day 21)

In the case of CC(C)(CCCCOCCCCC(C)(C)C(=O)O)C(=O)O [gemcabene, 6-(5-carboxy-5-methyl-hexyloxy)-2,2-dimethyl-hexanoic acid], the “Lobular Inflammation score 1: number of mice” value ([1]; 30 mg/kg PO QD, n = 8) is reported as 2, the “NAS (mean ± SD)” value ([1]; 30 mg/kg PO QD, n = 8) is reported as 3.4 ± 1.1 and the “Lobular Inflammation score 0: number of mice” value ([1]; 30 mg/kg PO QD, n = 8) is reported as 1. For the same molecule, the “Hepatocyte Ballooning score 0: number of mice” value ([1]; 30 mg/kg PO QD, n = 8) was 4, the “Steatosis score 1: number of mice” value ([1]; 30 mg/kg PO QD, n = 8) was 8 and the “Hepatocyte Ballooning score 1: number of mice” value ([1]; 30 mg/kg PO QD, n = 8) was 2. For the same molecule, the “Lobular Inflammation score 2: number of mice” value ([1]; 30 mg/kg PO QD, n = 8) was 4, the “Hepatocyte Ballooning score 2: number of mice” value ([1]; 30 mg/kg PO QD, n = 8) was 2 and the “Lobular Inflammation score 3: number of mice” value ([1]; 30 mg/kg PO QD, n = 8, score 3 = >4 foci/200x) was 1. For the same molecule, the “NAFLD Activity Score” value ([1]; 30 mg/kg) was 3.4, the Sirius red-positive area ([1]; 30 mg/kg) was 0.56% and the “Lobular Inflammation score 1: number of mice” value ([1]; 100 mg/kg PO QD, n = 8) was 1. For the same molecule, the “NAS (mean ± SD)” value ([1]; 100 mg/kg PO QD, n = 8) was 3.6 ± 1.4, the “Lobular Inflammation score 0: number of mice” value ([1]; 100 mg/kg PO QD, n = 8) was 2 and the “Hepatocyte Ballooning score 0: number of mice” value ([1]; 100 mg/kg PO QD, n = 8) was 1. The “Steatosis score 1: number of mice” value ([1]; 100 mg/kg PO QD, n = 8) was 8, the “Hepatocyte Ballooning score 1: number of mice” value ([1]; 100 mg/kg PO QD, n = 8) was 4 and the “Lobular Inflammation score 2: number of mice” value ([1]; 100 mg/kg PO QD, n = 8) was 5. For the same molecule, the “Hepatocyte Ballooning score 2: number of mice” value ([1]; 100 mg/kg PO QD, n = 8) was 3, the “NAFLD Activity Score” value ([1]; 100 mg/kg) was 3.6 and the Sirius red-positive area ([1]; 100 mg/kg) was 0.53%. The “Lobular Inflammation score 1: number of mice” value ([1]; 300 mg/kg PO QD, n = 8) was 2, the “NAS (mean ± SD)” value ([1]; 300 mg/kg PO QD, n = 8) was 2.5 ± 0.8 and the “Steatosis score 0: number of mice” value ([1]; 300 mg/kg PO QD, n = 8, score 0 = <5%) was 3. For the same molecule, the “Lobular Inflammation score 0: number of mice” value ([1]; 300 mg/kg PO QD, n = 8) was 2, the “Hepatocyte Ballooning score 0: number of mice” value ([1]; 300 mg/kg PO QD, n = 8) was 4 and the “Steatosis score 1: number of mice” value ([1]; 300 mg/kg PO QD, n = 8) was 5. The “Hepatocyte Ballooning score 1: number of mice” value ([1]; 300 mg/kg PO QD, n = 8) was 3, the “Lobular Inflammation score 2: number of mice” value ([1]; 300 mg/kg PO QD, n = 8) was 4 and the “Hepatocyte Ballooning score 2: number of mice” value ([1]; 300 mg/kg PO QD, n = 8) was 1. For the same molecule, the “NAFLD Activity Score” value ([1]; 300 mg/kg) was 2.5, the Sirius red-positive area ([1]; 300 mg/kg) was 0.59% and the Fasting blood glucose ([2]; 30 mg/kg PO QD) was 437 ± 42 mg/dL. For the same molecule, the Plasma insulin ([2]; 30 mg/kg PO QD) was 0.13 ± 0.04 ng/mL, the “Liver free fatty acid” value ([2]; 30 mg/kg PO QD) was 35.1 ± 8.4 pEq/g liver and the Liver hydroxyproline ([2]; 30 mg/kg PO QD) was 0.66 ± 0.12 μg/mg total protein. The Liver triglyceride ([2]; 30 mg/kg PO QD) was 49.2 ± 8.6 mg/g liver, the Non-fasting blood glucose ([2]; 30 mg/kg PO QD) was 607 ± 48 mg/dL and the “Plasma ApoC-III” value ([2]; 30 mg/kg PO QD) was 6.6 ± 0.8 gg/mL. The “Plasma CRP” value ([2]; 30 mg/kg PO QD) was 2.5 ± 0.3 gg/mL, the Plasma adiponectin ([2]; 30 mg/kg PO QD) was 4.1 ± 0.9 gg/mL and the Plasma alanine aminotransferase ([2]; 30 mg/kg PO QD) was 41 ± 15 U/L. The Plasma alkaline phosphatase ([2]; 30 mg/kg PO QD) was 382 ± 78 U/L, the Plasma aspartate aminotransferase ([2]; 30 mg/kg PO QD) was 100 ± 44 U/L and the “Plasma blood urea nitrogen” value ([2]; 30 mg/kg PO QD) was 25.0 ± 3.9 mg/dL. The Plasma creatinine ([2]; 30 mg/kg PO QD) was 0.1 ± 0.0 mg/dL, the Plasma gamma-glutamyl transferase ([2]; 30 mg/kg PO QD) was 1 ± 0 U/L and the Plasma ketone body ([2]; 30 mg/kg PO QD) was 9.43 ± 2.35 m M. For the same molecule, the Plasma leptin ([2]; 30 mg/kg PO QD) was 3.1 ± 1.2 ng/mL, the Plasma total bilirubin ([2]; 30 mg/kg PO QD) was 0.2 ± 0.1 mg/dL and the Plasma total cholesterol ([2]; 30 mg/kg PO QD) was 194 ± 17 mg/dL. It also gave a Plasma triglyceride ([2]; 30 mg/kg PO QD) of 319 ± 198 mg/dL, a Fasting blood glucose ([2]; 100 mg/kg PO QD) of 441 ± 46 mg/dL and a Plasma insulin ([2]; 100 mg/kg PO QD) of 0.17 ± 0.06 ng/mL. The “Liver free fatty acid” value ([2]; 100 mg/kg PO QD) was 38.4 ± 8.5 pEq/g liver, the Liver hydroxyproline ([2]; 100 mg/kg PO QD) was 0.74 ± 0.38 μg/mg total protein and the Liver triglyceride ([2]; 100 mg/kg PO QD) was 58.4 ± 14.5 mg/g liver. For the same molecule, the Non-fasting blood glucose ([2]; 100 mg/kg PO QD) was 653 ± 53 mg/dL, the “Plasma ApoC-III” value ([2]; 100 mg/kg PO QD) was 6.0 ± 2.5 gg/mL and the “Plasma CRP” value ([2]; 100 mg/kg PO QD) was 1.9 ± 0.3 gg/mL. The Plasma adiponectin ([2]; 100 mg/kg PO QD) was 4.1 ± 0.5 gg/mL, the Plasma alanine aminotransferase ([2]; 100 mg/kg PO QD) was 27 ± 7 U/L and the Plasma alkaline phosphatase ([2]; 100 mg/kg PO QD) was 642 ± 167 U/L. The Plasma aspartate aminotransferase ([2]; 100 mg/kg PO QD) was 88 ± 32 U/L, the “Plasma blood urea nitrogen” value ([2]; 100 mg/kg PO QD) was 29.8 ± 4.3 mg/dL and the Plasma creatinine ([2]; 100 mg/kg PO QD) was 0.1 ± 0.1 mg/dL. It also gave a Plasma gamma-glutamyl transferase ([2]; 100 mg/kg PO QD) of 1 ± 0 U/L, a Plasma ketone body ([2]; 100 mg/kg PO QD) of 5.75 ± 3.24 m M and a Plasma leptin ([2]; 100 mg/kg PO QD) of 4.3 ± 1.2 ng/mL. It also gave a Plasma total bilirubin ([2]; 100 mg/kg PO QD) of 0.3 ± 0.2 mg/dL, a Plasma total cholesterol ([2]; 100 mg/kg PO QD) of 228 ± 37 mg/dL and a Plasma triglyceride ([2]; 100 mg/kg PO QD) of 191 ± 57 mg/dL. The Fasting blood glucose ([2]; 300 mg/kg PO QD) was 407 ± 15 mg/dL, the Plasma insulin ([2]; 300 mg/kg PO QD) was 0.13 ± 0.04 ng/mL and the “Liver free fatty acid” value ([2]; 300 mg/kg PO QD) was 46.0 ± 5.5 pEq/g liver. For the same molecule, the Liver hydroxyproline ([2]; 300 mg/kg PO QD) was 0.70 ± 0.10 μg/mg total protein, the Liver triglyceride ([2]; 300 mg/kg PO QD) was 56.0 ± 13.9 mg/g liver and the Non-fasting blood glucose ([2]; 300 mg/kg PO QD) was 638 ± 63 mg/dL. The “Plasma ApoC-III” value ([2]; 300 mg/kg PO QD) was 6.2 ± 0.7 gg/mL, the “Plasma CRP” value ([2]; 300 mg/kg PO QD) was 1.9 ± 0.4 gg/mL and the Plasma adiponectin ([2]; 300 mg/kg PO QD) was 4.9 ± 0.5 gg/mL. For the same molecule, the Plasma alanine aminotransferase ([2]; 300 mg/kg PO QD) was 32 ± 14 U/L, the Plasma alkaline phosphatase ([2]; 300 mg/kg PO QD) was 794 ± 57 U/L and the Plasma aspartate aminotransferase ([2]; 300 mg/kg PO QD) was 147 ± 122 U/L. The “Plasma blood urea nitrogen” value ([2]; 300 mg/kg PO QD) was 30.1 ± 5.8 mg/dL, the Plasma creatinine ([2]; 300 mg/kg PO QD) was 0.2 ± 0.1 mg/dL and the Plasma gamma-glutamyl transferase ([2]; 300 mg/kg PO QD) was 1 ± 0 U/L. It also gave a Plasma ketone body ([2]; 300 mg/kg PO QD) of 5.68 ± 3.08 m M, a Plasma leptin ([2]; 300 mg/kg PO QD) of 3.2 ± 1.1 ng/mL and a Plasma total bilirubin ([2]; 300 mg/kg PO QD) of 0.3 ± 0.1 mg/dL. It also gave a Plasma total cholesterol ([2]; 300 mg/kg PO QD) of 234 ± 45 mg/dL and a Plasma triglyceride ([2]; 300 mg/kg PO QD) of 149 ± 32 mg/dL.
